# Assay results published in patent publication USRE47388E1, “Agents for alleviating side effects” (TAIHO PHARMACEUTICAL CO., LTD., priority 1999, dated 2019).
# Structures can show the parent of a compound that is named as a salt. Marks after values point to notes of the source that are not given here.
# Legend:
# [1] = Test 3: suppression of body weight increase in tumor-bearing rats; type: in vivo, Donryu male rats; conditions: for Suppression of body weight (in words): CDDP alone 6 mg/kg, Compound 1 for seven consecutive days with CDDP; for Body weight change: day 0 to day 8; for Weight change ratio (%): ratio of suppression of body weight increase vs control
# Description: CDDP was suspended in saline so as to obtain a 0.6 mg/ml suspension, and the suspension was stirred by use of a stirrer for about 20 minutes at room temperature. The suspension was subjected to sonication for 5 minutes while being cooled with ice to thereby obtain a test solution containing CDDP for administration at 6.0 mg/kg/day.
# Compound 1 was suspended in 0.5% HPMC so as to obtain a 3 mg/ml suspension, 10 mg/ml suspension, and 30 mg/ml suspension, respectively, and each suspension was stirred by use of a stirrer for about 20 minutes at room temperature. Each suspension was subjected to sonication for 5 minutes while being cooled with ice to thereby obtain test solutions containing Compound 1 for administration at 30 mg/kg/day, 100 mg/kg/day, and 300 mg/kg/day, respectively.
# Five-week-old Donryu male rats were divided into a control group and treatment groups so that the average body weights of the groups and the standard deviations (S.D.) of the groups were made to be as close to one another as possible. Yoshida sarcoma (2×10^4 cells/0.1 ml/rat) was subcutaneously transplanted on the back of each rat, and administration was started the day following the day of transplant. To each rat of the CDDP treatment alone groups, the CDDP solution of 6.0 mg/kg was intravenously administered on the first administration day, and a 0.5% HPMC solution was orally administered for seven consecutive days at a daily dose of 1.0 ml per 100 g of body weight. […] To each rat of the control group, saline was intravenously administered on the first administration day in a dose of 1.0 ml per 100 g of body weight. Simultaneously, a 0.5% HPMC solution was orally administered once a day for five consecutive days at a daily dose of 1.0 ml per 100 g of body weight. In order to observe the action of Compound 1 per se, Compound-1-administration alone groups were provided for administration at 30 mg/kg/day, 100 mg/kg/day, and 300 mg/kg/day, respectively.
# The rats were weighed on the day of transplantation (day 0) and the day following the day of final administration (day 8), and the suppression ratio of body weight increase was calculated by use of the following equation. Ratio of suppression of body weight increase (%)=(1−body weight changes of one treatment group/body weight changes of the control group)×100
# Yoshida sarcoma = experiment: Test 3: action on anti-tumor action of cancer drug (tumor weight); type: in vivo, Donryu male rats; conditions: for Tumor weight: day 8; for Anti-tumor action / inhibition of tumor weight (in words): CDDP alone 6 mg/kg, Compound 1 for seven consecutive days with CDDP; for Inhibition ratio (%): tumor shrinkage vs control
# IL-6 = experiment: Test 4: IL-6 level in the small intestine and the large intestine (ELISA); type: in vivo, ICR mice; conditions: for Level of inflammatory cytokine IL-6 in the small intestine and the large intestine (in words): FTD 200 mg/kg/day eight consecutive days vs control, Compound 1 94 mg/kg incorporated; for Large intestine IL-6 / Small intestine IL-6: day 9, oral, eight days, FTD 200 mg/kg/day, Compound 1 94 mg/kg/day in the mixture, alone 100 mg/kg/day
# Description: (§1) To each rat of the control group, a 0.5% HPMC solution was perorally administered for eight consecutive days. In order to observe the action of Compound 1 per se, Compound 1-administration alone groups were provided for administration of 100 mg/kg/day. […] Immediately after the collected region were washed with saline, the portions were frozen to preserve at −80° C. Each sample preparation was diluted with a 0.05M phosphate buffer (pH 7.4) so as to attain a tissue concentration of approximately 10% (W/V), and the resultant mixture was homogenized, subjected to sonication, and subjected twice to freeze-thawing. The thus-treated matter was centrifuged at 12,000 g for 15 minutes, and the supernatant was collected to serve as a sample for cytokine measurement. Cytokines, i.e., IL-1β and mouse IL-6 were measured by use of an ELISA kit for mouse (product of Endogen, Inc.), and the results are shown in Table 4. Test results were statistically analyzed in accordance with the Dunnett method ((*; p<0.05) and (**; p<0.01)).
# IL-1β = experiment: Test 4: IL-1β level in the large intestine (ELISA); type: in vivo, ICR mice; conditions: for Level of IL-1β in the large intestine (in words): FTD 200 mg/kg/day eight consecutive days vs control, Compound 1 94 mg/kg incorporated; for Large intestine IL-1β: day 9, oral, eight days, FTD 200 mg/kg/day, Compound 1 94 mg/kg/day in the mixture, alone 100 mg/kg/day
# Description: as §1
# [2] = Test 1: alleviating effect on suppression of body weight increase caused by 5-FU or CDDP
# Description: 5-Fluorouracil (hereinafter referred to as “5-FU”) was suspended in saline so as to obtain a 2.0 mg/ml suspension, and the suspension was stirred by use of a stirrer for about 20 minutes at room temperature. The suspension was treated with sonication for 5 minutes while being cooled with ice, to thereby obtain a test solution containing 5-FU for administration at 20 mg/kg/day.
# Cisplatin (hereinafter referred to as “CDDP”) was suspended in saline so as to obtain a 0.1 mg/ml suspension, and the suspension was stirred by use of a stirrer for about 20 minutes at room temperature. The suspension was treated with sonication for 5 minutes while being cooled with ice, to thereby obtain a test solution containing CDDP for administration at 1.0 mg/kg/day.
# Compound 1 was suspended in water so as to obtain a 10 mg/ml suspension, and the suspension was stirred by use of a stirrer for about 20 minutes at room temperature. The suspension was treated with sonication for 5 minutes while being cooled with ice, to thereby obtain a test solution containing Compound 1 for administration at 100 mg/kg/day.
# Five-week-old Donryu male rats were divided into a control group and treatment groups so that the average body weights of the groups and the standard deviations (S.D.) of the groups were made to be as close to one another as possible. To each rat of the anti-tumor-agent treatment alone groups, the 5-FU solution or the CDDP solution was intravenously administered once a day for four consecutive days at a daily dose of 1.0 ml per 100 g of body weight. Simultaneously, water was orally administered once a day for four consecutive days at a daily dose of 1.0 ml per 100 g of body weight. To each rat of the combination-administration treatment groups, the 5-FU solution or the CDDP solution was intravenously administered once a day for four consecutive days at a daily dose of 1.0 ml per 100 g of body weight. Simultaneously, to each rat of the combination-administration groups, the solution of Compound 1 was orally administered once a day for four consecutive days at a daily dose of 1.0 ml per 100 g of body weight. To each rat of the control group, saline was intravenously administered once a day for four consecutive days at a daily dose of 1.0 ml per 100 g of body weight. Simultaneously, water was orally administered once a day for four consecutive days at a daily dose of 1.0 ml per 100 g of body weight.
# The rats were weighed prior to initiation of administration (day 1) and on the day following the day of final administration (day 5), and the ratio of suppression of body weight increase was calculated by use of the following equation.
# Test results were statistically analyzed using the Student's “T” test. […]
# [3] = Test 4: measurement of body weight change after FTD; type: in vivo, ICR mice; conditions: for Weight change ratio (%): body weight changes/body weight before administration x100, eight days, alone 100 mg/kg/day; for Weight change ratio (%) / Body weight change: oral, FTD 200 mg/kg/day, Compound 1 94 mg/kg/day in the mixture; for Body weight change: day 0 to day 9, eight consecutive days, Compound 1 alone 100 mg/kg/day
# Description: 5-Trifluoromethyl-2′-deoxyuridine (hereinafter abbreviated as FTD) was suspended in a 0.5% HPMC solution so as to obtain a 20 mg/ml suspension, and the suspension was stirred by use of a stirrer for about 20 minutes at room temperature.
# FTD was suspended in a 0.5% HPMC solution so as to obtain a 20 mg/ml suspension. To the suspension, Compound 1 was added so as to attain a concentration of 9.4 mg/ml. The resultant mixture was stirred by use of a stirrer for about 20 minutes at room temperature, and then subjected to sonication under ice cooling, to thereby obtain a test solution containing FTD and Compound 1 (mol ratio 1:0.5).
# Compound 1 was suspended in a 0.5% HPMC solution so as to obtain a 10 mg/ml suspension, and the suspension was stirred by use of a stirrer for about 20 minutes at room temperature. The suspension was subjected to sonication for 5 minutes under ice cooling, to thereby obtain a test solution containing Compound 1 for administration of 100 mg/kg/day.
# Eight-week-old male ICR rats were divided into a control group and treatment groups so that the average body weights of the groups and the standard deviations (S.D.) of the groups were made to be as close to one another as possible. To each rat of the FTD treatment alone groups, the FTD solution of 200 mg/kg/day (1.0 ml) was orally administered once a day for eight consecutive days (per 100 g body weight of each rat). To each rat of combination-administration treatment groups, a mixture solution of FTD and Compound 1 was perorally administered once a day for eight consecutive days at a daily dose of 1.0 ml per 100 g of body weight. To each rat of the control group, a 0.5% HPMC solution was perorally administered for eight consecutive days. In order to observe the action of Compound 1 per se, Compound 1-administration alone groups were provided for administration of 100 mg/kg/day.
# The rats were weighed at the previous day of the first administration (day 0) and the following day of the day of final administration (day 9), and the ratio of body weight ratio was calculated by use of the following equation. Ratio of body weight change (%)=body weight changes/body weight before administration×100
# [4] = Test 2: delaying effect on diarrhea occurrence caused by CPT-11; type: in vivo, Donryu male rats; conditions: CPT-11 60 mg/kg/day i.v. every day for five days; Compound 1 30 mg/kg/day oral concomitantly
# Description: Irinotecan hydrochloride (hereinafter referred to as “CPT-11”; KAMPTO Injection 100 mg/5 ml; product of Yakult Co., Ltd.) was diluted with saline so as to obtain a 6 mg/ml solution for administration at 60 mg/kg/day.
# Compound 1 was suspended in a 0.5% hydroxypropylmethyl cellulose solution (hereinafter referred to as “0.5% HPMC”) so as to obtain a 3 mg/ml suspension, and the suspension was stirred by use of a stirrer for about 20 minutes at room temperature. The suspension was subjected to ultrasound treatment for 5 minutes while being cooled with ice, to thereby obtain a test solution containing Compound 1 for administration at 30 mg/kg/day.
# Five-week-old Donryu male rats were divided into a control group and treatment groups so that the average body weights of the groups and the standard deviations (S.D.) of the groups were made to be as close to one another as possible. To each rat of the anti-tumor-agent treatment alone groups, the CPT-11 solution was intravenously administered once a day for five consecutive days at a daily dose of 1.0 ml per 100 g of body weight. […] The number of rats which had diarrhea at least once during the test period were counted as “diarrhea-rats”. The accumulated occurrence of diarrhea was calculated by use of the following equation: accumulated occurrence of diarrhea (%)=(the number of rats which had diarrhea/the total number of rats)×100
# [5] = CDDP 6.0 mg/kg i.v. on first day + vehicle oral 7 days
# [6] = Compound 1 30 mg/kg/day oral 7 days, with CDDP 6.0 mg/kg i.v. day 1 or saline
# [7] = Compound 1 100 mg/kg/day oral 7 days, with CDDP 6.0 mg/kg i.v. day 1 or saline
# [8] = Compound 1 300 mg/kg/day oral 7 days, with CDDP 6.0 mg/kg i.v. day 1 or saline
compound,measurement,setting,value
"[NH2][Pt]([NH2])([Cl])[Cl] [CDDP, Cisplatin, reference compound]",Suppression of body weight (in words),[1],Significant inhibition
same,Body weight change,[1]; [5],-19.4 ± 8.6 g
same,Weight change ratio (%),[1]; [5],174.9%
same,Tumor weight,Yoshida sarcoma; CDDP 6.0 mg/kg i.v. on first day + 0.5% HPMC vehicle oral 7 days,0.162 ± 0.155 g
same,Anti-tumor action / inhibition of tumor weight (in words),Yoshida sarcoma,Significant inhibition of tumor weight
same,Inhibition ratio (%),Yoshida sarcoma; [5],75.7%
"Cl.N=C1CCCN1Cc1[nH]c(=O)[nH]c(=O)c1Cl [Compound 1, 5-Chloro-6-(2-iminopyrrolidin-1-yl)methyl-2,4-(1H,3H)-pyrimidinedione Hydrochloride]",Suppression of body weight (in words),[1],suppression of body weight was alleviated
same,Body weight change,[1]; [6],29.3 ± 10.2 g
same,Body weight change,[1]; [7],23.9 ± 6.6 g
same,Body weight change,[1]; [8],28.1 ± 6.0 g
same,Weight change ratio (%),[1]; [6],−13.1%
same,Weight change ratio (%),[1]; [7],7.7%
same,Weight change ratio (%),[1]; [8],−8.5%
same,Level of inflammatory cytokine IL-6 in the small intestine and the large intestine (in words),IL-6,inhibited
same,Large intestine IL-6,IL-6,10.7 ± 4.7 pg/mg protein
same,Small intestine IL-6,IL-6,19.8 ± 9.9 pg/mg protein
same,Level of IL-1β in the large intestine (in words),IL-1β,inhibited
same,Large intestine IL-1β,IL-1β,23.7 ± 4.6 pg/mg protein
same,"Occurrence of diarrhea, combination-administration groups vs anti-tumor-agent-administration alone groups",[2]; Compound 1 100 mg/kg/day with 5-FU 20 mg/kg/day or CDDP 1.0 mg/kg/day,lower
same,Anti-tumor action / inhibition of tumor weight (in words),Yoshida sarcoma,without affecting the anti-tumor action
same,Tumor weight,Yoshida sarcoma; [6],0.787 ± 0.307 g
same,Tumor weight,Yoshida sarcoma; [7],0.816 ± 0.329 g
same,Tumor weight,Yoshida sarcoma; [8],0.829 ± 0.281 g
same,Inhibition ratio (%),Yoshida sarcoma; [6],−18.1%
same,Inhibition ratio (%),Yoshida sarcoma; [7],−22.4%
same,Inhibition ratio (%),Yoshida sarcoma; [8],−24.5%
same,Decrease in the body weight caused by FTD (in words),[3]; Compound 1 94 mg/kg/day incorporated with FTD 200 mg/kg/day,protected
same,Weight change ratio (%),[3],6.8%
same,Body weight change,[3],2.4 ± 1.1 g
same,"Accumulated occurrence of diarrhea (FIG. 1, in words)",[4],delayed
"O=c1[nH]cc(F)c(=O)[nH]1 [Compound 5-FU, 5-Fluorouracil]",Suppression of body weight increase (in words),"[2]; 5-FU 20 mg/kg/day or CDDP 1.0 mg/kg/day for 4 consecutive days, Compound 1 100 mg/kg/day in combination with the anti-tumor agent",Suppression of body weight increase was confirmed
same,Body weight change,"[2]; day 1 to day 5, 5-FU 20 mg/kg/day or CDDP 1.0 mg/kg/day i.v., Compound 1 100 mg/kg/day oral, four consecutive days, mean ± S.D.",15.6 ± 3.6 g
same,Suppression ratio (%) (ratio of suppression of body weight increase),"[2]; vs control group, 5-FU 20 mg/kg/day or CDDP 1.0 mg/kg/day i.v., Compound 1 100 mg/kg/day oral, four consecutive days",46.7%
"CCc1c2c(nc3ccc(OC(=O)N4CCC(N5CCCCC5)CC4)cc13)-c1cc3c(c(=O)n1C2)COC(=O)[C@]3(O)CC [CPT-11, Irinotecan hydrochloride, reference compound]","Accumulated occurrence of diarrhea (FIG. 1, in words)",[4],diarrhea occurred after the third administration day
"O=c1[nH]c(=O)n([C@H]2C[C@H](O)[C@@H](CO)O2)cc1C(F)(F)F [FTD, 5-Trifluoromethyl-2′-deoxyuridine, reference compound]",Level of inflammatory cytokine IL-6 in the small intestine and the large intestine (in words),IL-6,high level
same,Large intestine IL-6,IL-6,118.0 ± 47.6** pg/mg protein
same,Small intestine IL-6,IL-6,95.5 ± 19.2** pg/mg protein
same,Level of IL-1β in the large intestine (in words),IL-1β,elevated
same,Large intestine IL-1β,IL-1β,77.3 ± 42.1** pg/mg protein
same,Weight change ratio (%),[3],−17.6%
same,Body weight change,[3],-1.6 ± 4.7 g
same,Decrease ratio of the body weight at the following day of the final administration to that before administration,[3]; solo FTD 200 mg/kg daily for eight consecutive days,approximately 18%
